Key:
[1] = molecular target: T1, human estrogen receptor alpha (ERα) (Homo sapiens, UniProt P03372); experiment: CHO steroid receptor reporter assay, ERα / rat oxytocin-Luc; assay type: cell-based
T1 construct: expressed in transfected cells; host or cells: CHO K1
T1 sequence (P03372 1-595): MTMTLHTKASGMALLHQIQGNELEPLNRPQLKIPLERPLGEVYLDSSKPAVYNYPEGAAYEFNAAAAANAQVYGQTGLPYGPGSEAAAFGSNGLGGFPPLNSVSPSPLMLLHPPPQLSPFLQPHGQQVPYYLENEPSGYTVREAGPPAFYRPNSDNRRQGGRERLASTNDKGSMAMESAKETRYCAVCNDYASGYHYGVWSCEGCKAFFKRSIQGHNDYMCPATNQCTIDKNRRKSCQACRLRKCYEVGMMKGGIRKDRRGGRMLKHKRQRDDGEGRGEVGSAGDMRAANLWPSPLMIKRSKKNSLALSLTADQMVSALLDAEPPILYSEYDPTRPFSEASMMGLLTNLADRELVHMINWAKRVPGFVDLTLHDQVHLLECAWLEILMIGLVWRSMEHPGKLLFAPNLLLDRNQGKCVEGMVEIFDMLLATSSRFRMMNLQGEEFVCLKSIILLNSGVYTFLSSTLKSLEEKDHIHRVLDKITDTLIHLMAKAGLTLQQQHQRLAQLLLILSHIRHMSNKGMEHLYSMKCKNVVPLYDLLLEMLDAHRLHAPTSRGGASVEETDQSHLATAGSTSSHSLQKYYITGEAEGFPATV
From the text: For monitoring both human steroid receptor agonistic as well as antagonistic activity of compounds, Chinese hamster ovary (CHO) K1 cells stably co-transfected with the specific human steroid receptor and its respective reporter construct were used (as previously described).
For human glucocorticoid receptor (GR)-specific activity CHO-GR B4.8 cells containing both recombinant human GR as well as a reporter construct consisting of the mouse mammary tumor virus (MMTV) promotor and the luciferase reporter gene, were used. Compound was incubated alone (in the agonistic setup) or with 50 nM dexamethasone (in the antagonistic setup) overnight. Hereafter, 200 µl medium was removed and 50 µl luciferine substrate solution from the LucLite luminescence kit (Packard, Meriden, USA) was added. […] Percentage maximal antagonistic efficacy was related to the maximal antagonistic efficacy of reference GR antagonist Org 34116. Similar procedures were followed for the other human steroid receptor assays (for more detailed information see Supportive Information) (SI text).
Similar procedures were followed for the other human steroid receptor assays containing combinations of human progesterone receptor B (PR-B) and MMTV-Luc, human androgen receptor (AR) and MMTV-Luc, human chimeric glucocorticoid-mineralocorticoid receptor (GGM, Trapp et al. (1994), Neuron 13: 1457) and MMTV-Luc, human estrogen receptor alpha (ERα) and rat oxytocin-Luc (45), and human estrogen receptor beta (ERβ) and rat oxytocin-Luc, respectively.

[2] = tested on: endometrium in estrogen-primed immature rabbits; experiment: McPhail test (agonistic, progestational activity); assay type: in vivo, rabbit; details: 0-4 scale; 5 days; MPA 0.05 mg/kg/day, Org 214007-0 0.5 mg/kg/day; n=2
Protocol: The McPhail (or anti-McPhail) test was used to evaluate potential progestational (or anti-progestational) activity of Org 214007-0 on the endometrium in estrogen-primed immature rabbits after once-daily administration. The female NZW rabbits were housed in pairs in a light- and temperature-controlled room, fed daily with 40 - 50 g standard pelleted food and with free access to tap-water. Before treatment with compounds rabbits were primed daily in the morning with a subcutaneous dose of 2 μg estradiol benzoate for 8 days. […] Transverse sections were prepared, stained with haematoxylin-eosin and evaluated microscopically. Endometrial development was scored on a 0-4 scale as follows: score 0: no development of glands; score 1: start of development of glands; score 2: clear-cut development of glands with ducts beginning to branch; score 3: about 2/3 of stroma bearing glandual tissue; score 4: more than 2/3 of stroma bearing glandular tissue. A score of 2 or higher in both rabbits was evaluated as a positive resonse.
For both the agonistic and antagonistic test immature female NZW rabbits (n=2 per treatment group) were primed with estrogen. […] One day after the last treatment the uterus was dissected and endometrial development was scored on a 0-4 scale. […]

[3] = tested on: endometrium in estrogen-primed immature rabbits; experiment: anti-McPhail test (antagonistic, anti-progestational activity); assay type: in vivo, rabbit; details: 0-4 scale; 7 days with progesterone; RU486 4 mg/kg/day, Org 214007-0 0.5 mg/kg/day oral; n=2
Protocol: For the anti-McPhail test, the estrogen-primed rabbits were subsequently treated for 7 days with inducer progesterone (0.25 mg/kg/day s.c.) in combination with an oral treatment of either placebo, reference RU486 (4 mg/kg/day) or Org 214007-0 (0.5 mg/kg/day). The uterus preparation and evaluation of the endometrium was performed as described above.
For the antagonistic test, after oestrogen priming, rabbits were treated for 7 days with progesterone and placebo, reference RU486 or Org 214007-0. One day after the last treatment the uterus was dissected and endometrial development was scored on a 0-4 scale. […] After treatment with Org 214007-0 no reduction of the endometrial transformation was observed (score 3.31), indicative for no anti-progestagenic activity

EC50 ([1]; read-out: EC50 (agonist)): > 100 nM | IC50 ([1]; read-out: IC50 (antagonist)): > 1000 nM | % agonist potency ([1]; relative to reference compound): <0.01% | % antagonist potency ([1]; relative to reference compound): <1.86%
Compound: Cc1nnsc1C(=O)N[C@H]1CCN2c3ccc(C#N)cc3[C@@H](C)c3ccccc3[C@@H]2C1 [Org 214007-0]
endometrial development score, agonistic test [2]: 0.5 | endometrial development score, antagonistic test [3]: 3.31
